Values quoted from earlier work in patent US11577235B1, “Layered catalyst reactor systems and processes for hydrotreatment of hydrocarbon feedstocks” (Chevron U.S.A. Inc., priority 2021, dated 2023).

Tested on: rats
Details: single oral dose to rats

Row | Molecule | LD50 [mg/kg]
1 | thio-diglycolic acid | 500
2 | O=CC(=O)O [glyoxylic] | 3000
